Test results published in patent publication US5037822A, “1-arylsulphonyl-2-pyrrolidinethione or 1-arylsulphonyl-2-piperidinethione derivatives, process for the preparation thereof their application as medicinal products and compositions containing them” (Roussel-Uclaf, priority 1989, dated 1991).
Where two headings read alike, the source gives them in different places.

Assays:
[1] = tested on: isolated guinea pig ileum, contractions induced by acetylcholine; assay: Antagonist action on acetylcholine-induced contractions of isolated guinea pig ileum; assay type: cell-based; details: Cavia porcellus, read-out: Antagonist to ACh, IC50
Protocol: (§1) The interaction of the compounds with different receptors was assessed on isolated guinea pig ileum according to the following method.
(§2) Guinea pig ileum segments measuring 2.5-3 cm were washed and immediately suspended in a bath containing 10 ml of Tyrode's solution at 37° C. aerated with a mixture of oxygen (95%) and carbon dioxide (5%). After a stabilization period of at least 30 minutes, the contractions were recorded, maintaining the preparation under constant tension of 1 g using a gauge connected to a polygraph. The agonist action was assessed by leaving the compound in contact with the isolated tissue for a period necessary for expressing the maximal contraction; the preparation was then washed with Tyrode's solution. The next dose was added to the bath only after the preparation had returned to its base line. As a reference product, arecoline was employed. The antagonist action was assessed on contractions induced by acetylchloine (1×10^-6 M), histamine (1×10^-5 M) and barium chloride (2×10^-4 M). Atropine, diphenhydramine and papaverine were employed as reference products. The contact time before adding the agonist was one minute.
(§3) For each compound, the dose-response curves are obtained with 4 to 6 different concentrations and 3 to 5 independent tests. The agonist activity is expressed by pD2 (negative logarithm of the dose which produces 50% of the maximum effect). The antagonist activity is expressed by IC50 (concentration inhibiting 50% of the maximal response).

Muscarinic receptor 2 = assay: Binding to muscarinic receptor 2 ([3H]quinuclidinyl benzylate); details: 0.3 nM [3H]quinuclidinyl benzylate, rat brain, pH 7.5, 60 min, 25° C.; read-out: Affinity for M2 muscarinic receptor, IC50
Protocol: The preparation is performed from brains of male rats weighing 150 to 200 g (Iffa Credo).
The brains are ground (Teflon-glass) in 0.32M sucrose solution. The homogenate is centrifuged for 10 minutes at 1,000 g (0°-4° C.).
The supernatant obtained is collected and centrifuged at 30,000 g for 15 minutes (0°-4° C.).
The pellet is resuspended in 50 mM Tris buffer pH 7.5 and the new homogenate is centrifuged again at 30,000 g for 15 minutes (0°-4° C.).
After removal of the supernatant, the pellets may be used immediately or stored for up to 1 month at -30° C.
For an experiment, the pellets are first thawed, if necessary, at room temperature and resuspended using a Dounce in 50 mM Tris buffer pH 7.5. 2 ml aliquots are incubated for 60 minutes at 25° C. in the presence of 0.3 nM [^3 H]quinuclidinyl benzylate, either alone, or with the test product, or with 10^-5 M benzatropine to determine the non-specifically bound radioactivity.
At the end of the incubation period, the incubate tubes are cooled to 4° C. and filtered rapidly on Whatman GF/C filters. The filters are rinsed with 3×5 ml of 50 mM Tris buffer pH 7.5 and the measurements are then performed by liquid scintillation (Henry I. Yamamura, Solomon H. Snyder, Proc. Nat. Acad. Sc. (1974) 71, No. 5, 1725-1729).
(§4) The results are expressed as an IC50 (concentration needed to inhibit by 50% the specifically bound radioactivity).

[2] = tested on: cholinomimetic effects induced by carbachol; assay: In vivo anticholinergic action: inhibition of carbachol-induced cholinomimetic effects in mice; set-up: species or system CD1 male mice; details: for ED (1 C) / ED50: Mus musculus, ip; for ED (1 C): read-out: Body temperature: dose increasing by 1° C. the hypothermic effect induced by the cholinergic agent
Protocol: The anticholinergic activity of the compounds was determined by assessing the capacity to inhibit the cholinomimetic effects induced by carbachol. Atropine sulphate was employed as a reference product.
CD1 male mice weighing 25 to 30 g were used. They were distributed in groups of 6 animals and treated intraperitoneally with scalar doses of the products or 0.25% Methocel for the controls. 12 animals were used for each dose. 30 minutes after administration of the compounds, the mice were injected subcutaneously with 1 mg/kg of carbachol dissolved in physiological saline.
Each animal was examined 30 minutes after the injection of carbachol to assess the presence of diarrhoea, salivation and eye watering; in addition, the body temperature was measured by means of a thermocouple inserted 1.5 cm into the rectum.
For each compound, we have determined and recorded in the following table the dose capable of inhibiting the appearance of the carbachol-induced cholinometric symptoms in 50% of the animals, and of increasing by 1° C. the hypothermic effect induced by the cholinergic agent.

Muscarinic receptor 1 = molecular target: T1, Muscarinic receptor 1 (Rattus norvegicus, UniProt P08482); assay: Binding to muscarinic receptor 1 ([3H]pirenzepine); details: 0.25 nM [3H]pirenzepine, rat cortex homogenate, pH 7.4, 60 min, 25° C.; read-out: Affinity for M1 muscarinic receptor, IC50
T1 construct: cortices removed from the brains of male rats; tissue Iffa Credo (animals); host or cells: cerebral cortex of male rats weighing 150 to 200 g, homogenate
T1 sequence (P08482 1-460): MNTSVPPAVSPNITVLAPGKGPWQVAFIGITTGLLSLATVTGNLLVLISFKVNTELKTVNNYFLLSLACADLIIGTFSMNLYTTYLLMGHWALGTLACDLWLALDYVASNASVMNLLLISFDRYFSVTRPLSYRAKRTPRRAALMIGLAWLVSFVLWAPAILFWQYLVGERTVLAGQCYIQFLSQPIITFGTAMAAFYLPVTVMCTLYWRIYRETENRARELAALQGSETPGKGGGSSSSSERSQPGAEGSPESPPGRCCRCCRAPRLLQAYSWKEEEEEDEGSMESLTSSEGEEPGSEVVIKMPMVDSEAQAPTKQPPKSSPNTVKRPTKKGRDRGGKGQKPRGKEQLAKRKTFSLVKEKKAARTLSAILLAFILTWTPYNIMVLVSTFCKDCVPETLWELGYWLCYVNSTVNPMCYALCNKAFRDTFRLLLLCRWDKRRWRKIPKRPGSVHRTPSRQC
Protocol: Preparation of this is carried out from cortices removed from the brains of male rats weighing 150 to 200 g (Iffa Credo), ground in a Polytron in a 10 mM Na/K buffer pH 7.4. After incubation (0.5 ml aliquots of homogenate) for 60 minutes at 25° C. in the presence of 0.25 nM [^3 H]pirenzepine, either alone, or with the test product, or with an excess of 10^-5 M pirenzepine (to determine the non-specifically bound radioactivity), the incubates are cooled and filtered.
The filtration is performed on Whatman GF/C filters prewashed in a 0.05% strength solution of polyethylenimine. The filters are rinsed with 3×5 ml of 10 mM Na/K phosphate buffer pH 7.4 and the measurements are then performed by liquid scintillation.
as §4

[3] = tested on: isolated guinea pig ileum; assay: Agonist action on isolated guinea pig ileum; assay type: cell-based; details: Cavia porcellus, read-out: Agonist action pD2 (converted)
Protocol: as §1, §2, §3

[4] = tested on: isolated guinea pig ileum, contractions induced by barium chloride; assay: Antagonist action on barium chloride-induced contractions of isolated guinea pig ileum; assay type: cell-based; details: Cavia porcellus, read-out: Antagonist to BaCl2, IC50
Protocol: as §1, §2, §3

[5] = tested on: isolated guinea pig ileum, contractions induced by histamine; assay: Antagonist action on histamine-induced contractions of isolated guinea pig ileum; assay type: cell-based; details: Cavia porcellus; histamine 1×10^-5 M, contact time one minute, 37° C.; read-out: Antagonist to Histam., IC50
Protocol: as §1
as §2, with “The antagonist action was assessed on contractions induced by acetylchloine (1×10^-6 M), histamine (1×10^-5 M) and barium chloride (2×10^-4 M). Atropine, diphenhydramine and papaverine were employed as reference products.” left out
as §3

[6] = acetylcholine 1×10^-6 M, contact time one minute, 37° C.
[7] = 30 min before carbachol 1 mg/kg s.c., mice
[8] = 30 min before carbachol 1 mg/kg s.c., mice, read-out: Dose inhibiting carbachol-induced diarrhoea in 50% of the animals
[9] = 30 min before carbachol 1 mg/kg s.c., mice, read-out: Dose inhibiting carbachol-induced eye watering in 50% of the animals
[10] = 30 min before carbachol 1 mg/kg s.c., mice, read-out: Dose inhibiting carbachol-induced salivation in 50% of the animals
[11] = negative logarithm of the dose producing 50% of the maximum effect, 37° C.
[12] = barium chloride 2×10^-4 M, contact time one minute, 37° C.

SMILES | IC50 [1, 6] | IC50 (Muscarinic receptor 2) | ED (1 C) [2, 7] | ED50 [2, 8] | ED50 [2, 9] | ED50 [2, 10] | IC50 (Muscarinic receptor 1) | EC50 [3, 11] | IC50 [4, 12] | IC50 [5] | EC50 [3] | cholinomimetic symptoms induced by carbachol ([2]; 1 mg/kg s.c., control mice) | decrease in rectal temperature induced by carbachol ([2]; 1 mg/kg s.c., control mice) | IC50 [4] | IC50 [1] | ED50 ([2]; read-out: Dose inhibiting carbachol-induced diarrhoea in 50% of the animals) | ED50 ([2]; read-out: Dose inhibiting carbachol-induced eye watering in 50% of the animals) | ED50 ([2]; read-out: Dose inhibiting carbachol-induced salivation in 50% of the animals)
O=S(=O)(c1ccc(N2CCCCC2)cc1)N1CCCC1=S [Example 3, 1-[4-(1-piperidyl)benzenesulphonyl]-2-pyrrolidinethione] | 2600 nM | 650 nM | > 50 mg/kg | 3 mg/kg | > 50 mg/kg | > 50 mg/kg | 25 nM | > 10000 nM | > 10000 nM | – | – | – | – | – | – | – | – | –
CCN(CC)c1ccc(S(=O)(=O)N2CCCCC2=S)cc1 [Example 2, 1-[4-(diethylamino)benzenesulphonyl]-2-piperidinethione] | 340 nM | 1900 nM | > 50 mg/kg | 8 mg/kg | > 50 mg/kg | > 50 mg/kg | 73 nM | > 10000 nM | > 10000 nM | > 10000 nM | – | – | – | – | – | – | – | –
COC(=O)C1=CCCN(C)C1 [Arecoline, arecoline, reference compound] | – | – | – | – | – | – | – | – | – | – | 209 nM | – | – | – | – | – | – | –
O=S(=O)(c1ccc(N2CCCCCC2)cc1)N1CCCC1=S [Example 5, 1-[4-(1-Hexahydroazepinyl)benzenesulphonyl]-2-pyrrolidinethione] | 280 nM | 120 nM | 12 mg/kg | 0.6 mg/kg | > 50 mg/kg | 15 mg/kg | 10 nM | > 10000 nM | > 10000 nM | – | – | – | – | – | – | – | – | –
O=S(=O)(c1ccc(N2CCCCCC2)cc1)N1CCCCC1=S [Example 6, 1-[4-(1-Hexahydroazepinyl)benzenesulphonyl]-2-piperidinethione] | 190 nM | 230 nM | > 50 mg/kg | 2 mg/kg | > 50 mg/kg | 40 mg/kg | 12 nM | > 10000 nM | > 10000 nM | – | – | – | – | – | – | – | – | –
C[N+](C)(C)CCOC(N)=O [Carbachol, carbachol, reference compound] | – | – | – | – | – | – | – | – | – | – | – | induced diarrhoea, salivation and eye watering in all the control mice | approximately 2.5 °C | – | – | – | – | –
COc1ccc(Cc2nccc3cc(OC)c(OC)cc23)cc1OC [Papaverine, papaverine, reference compound] | – | – | – | – | – | – | – | – | – | – | – | – | – | 45000 nM | – | – | – | –
CN1[C@@H]2CC[C@H]1C[C@@H](OC(=O)C(CO)c1ccccc1)C2 (stereo partly shown) [Atropine, reference compound] | – | – | – | – | – | – | – | – | – | – | – | – | – | – | 9.5 nM | 0.04 mg/kg | 0.05 mg/kg | 0.06 mg/kg
O=S(=O)(c1ccc(N2CCCCC2)cc1)N1CCCCC1=S [Example 4, 1-[4-(1-Piperidyl)benzenesulphonyl]-2-piperidinethione] | 3600 nM | 580 nM | > 50 mg/kg | 7 mg/kg | > 50 mg/kg | > 50 mg/kg | 30 nM | > 10000 nM | > 10000 nM | – | – | – | – | – | – | – | – | –
CCN(CC)c1ccc(S(=O)(=O)N2CCCC2=S)cc1 [Example 1, 1-[4-(Diethylamino)benzenesulphonyl]-2-pyrrolidinethione] | 570 nM | 2200 nM | > 50 mg/kg | 5 mg/kg | > 50 mg/kg | > 50 mg/kg | 43 nM | > 10000 nM | > 10000 nM | > 10000 nM | – | – | – | – | – | – | – | –
